From ChEMBL document CHEMBL1121862, “Synthesis of 3-hydroxycyclophosphamide and studies related to its possible role in the metabolism of cyclophosphamide” (1981) come the findings set out here.

The structures appear in SMILES notation.

For experiment [1], the species on record is Mus musculus. Nature of the experiment: animal or person. The settings on record: ip.
The species named for experiment [2] is Mus musculus. Kind of experiment: animal or person. The settings on record: ip. The source holds these as a separate data set.

As to `O=P1(N(CCCl)CCCl)NCCCO1` (configuration not stated) [CYCLOPHOSPHAMIDE ANHYDROUS], the ILS (in general, the gain in survival time of treated over control animals, in per cent) at 100 mg/kg in the experiment filed under Mus musculus [1] was over 100%. The ILS at 200 mg/kg in the experiment listed under Mus musculus [2] is over 150%.
